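Growth conditions: 96-well plates. Treatment: test compound, 48 hours, 5 concentrations. Analysis: linear interpolation between bracketing concentrations; unreached endpoints set to highest concentration. GI50 = concentration required for 50% inhibition of growth. TGI: concentration producing complete growth inhibition.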
Tests used:
Assay in all cases: DTP human tumour cell line panel, 48 h
[1] = tested on: HT29 colon
[2] = tested on: A549 NSCLC
[3] = tested on: CCRF-CEM leukemia
[4] = tested on: IGROV1 ovarian
[5] = tested on: EKVX NSCLC
[6] = tested on: HCC-2998 colon
[7] = tested on: UO-31 renal

Structure (SMILES)	TGI [1]	TGI [2]	TGI [3]	TGI [4]	TGI [5]	GI50 [6]	TGI [6]	GI50 [7]	TGI [7]
COC(=O)[C@@H]1O[C@]12[C@@H](CO[Si](C)(C)C(C)(C)C)O[C@@H](n1cc(C)c(=O)[nH]c1=O)[C@@H]2O[Si](C)(C)C(C)(C)C	18.1 µM	64 µM	4.79 µM	21.6 µM	53.6 µM	–	–	–	–
c1cc2ccc1CNCCN1CCNCc3ccc(cc3)Oc3ccc(cc3)CNCCN(CCNCc3ccc(cc3)O2)CCNCc2ccc(cc2)Oc2ccc(cc2)CNCC1	–	–	–	–	–	0.659 µM	1.99 µM	11.3 µM	26.4 µM

Reference: PubChem BioAssay (NCI)
